Data taken from publication PMC3411833, “The Two PPX-GppA Homologues from Mycobacterium tuberculosis Have Distinct Biochemical Activities” (PLoS ONE, 2012).

Tests used:
[1] = target: Rv1026 protein from Mycobacterium tuberculosis H37Rv (Mycobacterium tuberculosis H37Rv); assay: SEC + other: dynamic light scattering
E. coli PPX (EC-PPX) = target: T1, E. coli PPX (EC-PPX) (Escherichia coli, UniProt P0AFL6); assay: inhibition of poly-P130 hydrolysis, EnzChek phosphate release; format: biochemical; settings: poly-P130 125 µM, 1 mM MnCl2, 25 mM KCl, 50 mM HEPES pH 6.8, 37°C
T1 construct: predicted 53 kDa; dimer
T1 sequence (P0AFL6 2-513): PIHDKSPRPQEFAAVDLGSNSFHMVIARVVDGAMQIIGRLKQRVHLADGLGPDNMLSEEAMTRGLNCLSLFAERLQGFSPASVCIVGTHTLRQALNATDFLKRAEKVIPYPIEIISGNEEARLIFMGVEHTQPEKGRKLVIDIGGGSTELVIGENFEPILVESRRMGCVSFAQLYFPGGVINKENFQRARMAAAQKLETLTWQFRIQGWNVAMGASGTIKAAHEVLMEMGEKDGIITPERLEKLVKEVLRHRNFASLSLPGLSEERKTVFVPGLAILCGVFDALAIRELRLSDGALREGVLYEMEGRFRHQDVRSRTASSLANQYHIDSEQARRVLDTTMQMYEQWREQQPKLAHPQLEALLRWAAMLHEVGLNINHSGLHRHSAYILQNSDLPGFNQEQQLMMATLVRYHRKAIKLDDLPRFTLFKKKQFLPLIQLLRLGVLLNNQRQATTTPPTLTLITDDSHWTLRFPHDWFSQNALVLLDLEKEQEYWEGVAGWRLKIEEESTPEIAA
Excerpt: inhibition of poly-P130 hydrolysis, EnzChek phosphate release on E. coli PPX (EC-PPX)

[2] = target: T2, E. coli GPP (EC-GPP, GppA) (Escherichia coli, UniProt P25552); assay: as above; format: biochemical; settings: poly-P130 125 µM, 1 mM MnCl2, 25 mM KCl, 50 mM HEPES pH 6.8, 37°C
T2 construct: predicted 51 kDa; dimer
T2 sequence (P25552 1-494): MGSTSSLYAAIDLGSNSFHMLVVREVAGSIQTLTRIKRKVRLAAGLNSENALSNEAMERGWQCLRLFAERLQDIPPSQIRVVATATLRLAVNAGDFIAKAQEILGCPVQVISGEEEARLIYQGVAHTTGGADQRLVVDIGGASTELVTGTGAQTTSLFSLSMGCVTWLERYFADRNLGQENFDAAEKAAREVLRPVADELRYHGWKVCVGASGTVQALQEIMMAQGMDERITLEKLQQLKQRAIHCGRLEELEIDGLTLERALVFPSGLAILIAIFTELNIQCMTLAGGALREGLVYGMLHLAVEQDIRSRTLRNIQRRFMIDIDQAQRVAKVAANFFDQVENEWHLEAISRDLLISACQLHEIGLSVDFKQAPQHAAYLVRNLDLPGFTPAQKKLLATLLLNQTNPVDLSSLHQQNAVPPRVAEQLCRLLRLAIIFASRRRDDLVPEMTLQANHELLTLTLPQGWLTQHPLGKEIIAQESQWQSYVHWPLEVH
Excerpt: inhibition of poly-P130 hydrolysis, EnzChek phosphate release on E. coli GPP (EC-GPP, GppA)

[3] = target: T2, E. coli GPP (EC-GPP, GppA); assay: GTP hydrolysis, anion exchange chromatography; format: biochemical; settings: 1 mM GTP, 1 mM MnCl2, 4 mM (NH4)2SO4, 50 mM Tris-HCl pH 7.4, 37°C
[4] = target: the molecule itself; assay: SEC + other: dynamic light scattering
[5] = target: the molecule itself; assay: SEC + other: dynamic light scattering; Superdex 200 gel filtration calibrated with protein standards; light scattering of 2, 1 and 0.5 mg/ml protein in 25 mM Tris-HCl pH 7.4, 25 mM NaCl (DynaPro Plate Reader Plus); self-association, dimer

Molecule: Rv1026 protein from Mycobacterium tuberculosis H37Rv (enzyme)
- stoichiometry N [1]: 2

Molecule: Nc1nc2c(ncn2[C@@H]2O[C@H](COP(=O)(O)OP(=O)(O)OP(=O)(O)O)[C@@H](OP(=O)(O)OP(=O)(O)O)[C@H]2O)c(=O)[nH]1 [pppGpp, guanosine 5′-triphosphate, 3′-diphosphate]
- Exopolyphosphatase activities / +1 mM pppGpp / (% decrease) / ATPase activities (E. coli PPX (EC-PPX)): 89.6±20.1%
- Exopolyphosphatase activities / +1 mM pppGpp / (% decrease) / ATPase activities [2]: 29.5±4.4%

Molecule: Nc1nc2c(ncn2[C@@H]2O[C@H](COP(=O)(O)OP(=O)(O)OP(=O)(O)O)[C@@H](O)[C@H]2O)c(=O)[nH]1 [GTP]
- GTP hydrolysis, anion exchange chromatography [3]: the E. coli GPP protein was a highly efficient GTPase and a modest ATPase

Molecule: Nc1nc2c(ncn2[C@@H]2O[C@H](COP(=O)(O)OP(=O)(O)O)[C@@H](OP(=O)(O)OP(=O)(O)O)[C@H]2O)c(=O)[nH]1 [ppGpp, guanosine 3′,5′-bisdiphosphate]
- Exopolyphosphatase activities / +1 mM ppGpp / (% decrease) / ATPase activities (E. coli PPX (EC-PPX)): 10.8±1.2%
- Exopolyphosphatase activities / +1 mM ppGpp / (% decrease) / ATPase activities [2]: 6.0±0.5%

B1: Rv0496 (MTB-PPX1) protein from Mycobacterium tuberculosis H37Rv (enzyme)
chain: MRLGVLDVGSNTVHLLVVDAHRGGHPTPMSSTKATLRLAEATDSSGKITKRGADKLISTIDEFAKIAISSGCAELMAFATSAVRDAENSEDVLSRVRKETGVELQALRGEDESRLTFLAVRRWYGWSAGRILNLDIGGGSLEVSSGVDEEPEIALSLPLGAGRLTREWLPDDPPGRRRVAMLRDWLDAELAEPSVTVLEAGSPDLAVATSKTFRSLARLTGAAPSMAGPRVKRTLTANGLRQLIAFISRMTAVDRAELEGVSADRAPQIVAGALVAEASMRALSIEAVEICPWALREGLILRKLDSEADGTALIESSSVHTSVRAVGGQPADRNAANRSRGSKP
- stoichiometry N [4]: 2

B2: E. coli guanosine pentaphosphate 5'-phosphohydrolase (GPP, GppA) (enzyme, E. coli BL21 (DE3), UniProt P25552 1-494, looked up)
chain: MGSTSSLYAAIDLGSNSFHMLVVREVAGSIQTLTRIKRKVRLAAGLNSENALSNEAMERGWQCLRLFAERLQDIPPSQIRVVATATLRLAVNAGDFIAKAQEILGCPVQVISGEEEARLIYQGVAHTTGGADQRLVVDIGGASTELVTGTGAQTTSLFSLSMGCVTWLERYFADRNLGQENFDAAEKAAREVLRPVADELRYHGWKVCVGASGTVQALQEIMMAQGMDERITLEKLQQLKQRAIHCGRLEELEIDGLTLERALVFPSGLAILIAIFTELNIQCMTLAGGALREGLVYGMLHLAVEQDIRSRTLRNIQRRFMIDIDQAQRVAKVAANFFDQVENEWHLEAISRDLLISACQLHEIGLSVDFKQAPQHAAYLVRNLDLPGFTPAQKKLLATLLLNQTNPVDLSSLHQQNAVPPRVAEQLCRLLRLAIIFASRRRDDLVPEMTLQANHELLTLTLPQGWLTQHPLGKEIIAQESQWQSYVHWPLEVH
notes: also called EC-GPP; E. coli GPP; source: E. coli BL21(DE3), purified (HiTrap Chelating HP, eluted with 60 mM imidazole)
- stoichiometry N [5]: 2

B3: E. coli exopolyphosphatase (PPX) (enzyme, E. coli BL21 (DE3), UniProt P0AFL6 1-513, looked up)
chain: MPIHDKSPRPQEFAAVDLGSNSFHMVIARVVDGAMQIIGRLKQRVHLADGLGPDNMLSEEAMTRGLNCLSLFAERLQGFSPASVCIVGTHTLRQALNATDFLKRAEKVIPYPIEIISGNEEARLIFMGVEHTQPEKGRKLVIDIGGGSTELVIGENFEPILVESRRMGCVSFAQLYFPGGVINKENFQRARMAAAQKLETLTWQFRIQGWNVAMGASGTIKAAHEVLMEMGEKDGIITPERLEKLVKEVLRHRNFASLSLPGLSEERKTVFVPGLAILCGVFDALAIRELRLSDGALREGVLYEMEGRFRHQDVRSRTASSLANQYHIDSEQARRVLDTTMQMYEQWREQQPKLAHPQLEALLRWAAMLHEVGLNINHSGLHRHSAYILQNSDLPGFNQEQQLMMATLVRYHRKAIKLDDLPRFTLFKKKQFLPLIQLLRLGVLLNNQRQATTTPPTLTLITDDSHWTLRFPHDWFSQNALVLLDLEKEQEYWEGVAGWRLKIEEESTPEIAA
notes: also called EC-PPX; E. coli PPX; source: E. coli BL21(DE3), purified (HiTrap Chelating HP, eluted with 60 mM imidazole)
- stoichiometry N [5]: 2
